Reference: ChEMBL document CHEMBL5338728, “Advancing Strategies for Proteolysis-Targeting Chimera Design” (J Med Chem, 2023)

How the values were obtained:
[1] = molecular target: T1, Protein fem-1 homolog B/Bromodomain-containing protein 4 (Homo sapiens, UniProt O60885+Q9UK73); experiment: Protac activity at FEM1B/BRD4 in HEK293T cells assessed as degradation of BRD4; assay type: cell-based
[2] = molecular target: T1, Protein fem-1 homolog B/Bromodomain-containing protein 4; experiment: Protac activity at FEM1B/BRD4 in HEK293T cells assessed as induction of protein degradation by measuring maximal efficacy relative to control; assay type: cell-based
[3] = molecular target: T2, von Hippel-Lindau disease tumor suppressor/SWI/SNF-related matrix-associated actin-dependent regulator of chromatin subfamily A member 2 (Homo sapiens, UniProt P51531+P40337); experiment: Protac activity at VHL/SMARCA2 in human RKO cells assessed as induction of protein degradation by measuring maximal efficacy incubated for 18 hrs by capillary electrophoresis analysis relative to control; assay type: cell-based
Target sequence in this assay (P40337 whole entry, looked up): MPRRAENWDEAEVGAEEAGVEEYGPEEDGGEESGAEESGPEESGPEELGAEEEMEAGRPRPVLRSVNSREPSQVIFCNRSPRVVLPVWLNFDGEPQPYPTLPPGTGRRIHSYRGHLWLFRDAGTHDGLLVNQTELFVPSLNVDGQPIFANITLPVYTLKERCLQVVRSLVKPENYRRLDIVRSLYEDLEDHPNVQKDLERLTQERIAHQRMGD
Target sequence in this assay (P51531 whole entry, looked up): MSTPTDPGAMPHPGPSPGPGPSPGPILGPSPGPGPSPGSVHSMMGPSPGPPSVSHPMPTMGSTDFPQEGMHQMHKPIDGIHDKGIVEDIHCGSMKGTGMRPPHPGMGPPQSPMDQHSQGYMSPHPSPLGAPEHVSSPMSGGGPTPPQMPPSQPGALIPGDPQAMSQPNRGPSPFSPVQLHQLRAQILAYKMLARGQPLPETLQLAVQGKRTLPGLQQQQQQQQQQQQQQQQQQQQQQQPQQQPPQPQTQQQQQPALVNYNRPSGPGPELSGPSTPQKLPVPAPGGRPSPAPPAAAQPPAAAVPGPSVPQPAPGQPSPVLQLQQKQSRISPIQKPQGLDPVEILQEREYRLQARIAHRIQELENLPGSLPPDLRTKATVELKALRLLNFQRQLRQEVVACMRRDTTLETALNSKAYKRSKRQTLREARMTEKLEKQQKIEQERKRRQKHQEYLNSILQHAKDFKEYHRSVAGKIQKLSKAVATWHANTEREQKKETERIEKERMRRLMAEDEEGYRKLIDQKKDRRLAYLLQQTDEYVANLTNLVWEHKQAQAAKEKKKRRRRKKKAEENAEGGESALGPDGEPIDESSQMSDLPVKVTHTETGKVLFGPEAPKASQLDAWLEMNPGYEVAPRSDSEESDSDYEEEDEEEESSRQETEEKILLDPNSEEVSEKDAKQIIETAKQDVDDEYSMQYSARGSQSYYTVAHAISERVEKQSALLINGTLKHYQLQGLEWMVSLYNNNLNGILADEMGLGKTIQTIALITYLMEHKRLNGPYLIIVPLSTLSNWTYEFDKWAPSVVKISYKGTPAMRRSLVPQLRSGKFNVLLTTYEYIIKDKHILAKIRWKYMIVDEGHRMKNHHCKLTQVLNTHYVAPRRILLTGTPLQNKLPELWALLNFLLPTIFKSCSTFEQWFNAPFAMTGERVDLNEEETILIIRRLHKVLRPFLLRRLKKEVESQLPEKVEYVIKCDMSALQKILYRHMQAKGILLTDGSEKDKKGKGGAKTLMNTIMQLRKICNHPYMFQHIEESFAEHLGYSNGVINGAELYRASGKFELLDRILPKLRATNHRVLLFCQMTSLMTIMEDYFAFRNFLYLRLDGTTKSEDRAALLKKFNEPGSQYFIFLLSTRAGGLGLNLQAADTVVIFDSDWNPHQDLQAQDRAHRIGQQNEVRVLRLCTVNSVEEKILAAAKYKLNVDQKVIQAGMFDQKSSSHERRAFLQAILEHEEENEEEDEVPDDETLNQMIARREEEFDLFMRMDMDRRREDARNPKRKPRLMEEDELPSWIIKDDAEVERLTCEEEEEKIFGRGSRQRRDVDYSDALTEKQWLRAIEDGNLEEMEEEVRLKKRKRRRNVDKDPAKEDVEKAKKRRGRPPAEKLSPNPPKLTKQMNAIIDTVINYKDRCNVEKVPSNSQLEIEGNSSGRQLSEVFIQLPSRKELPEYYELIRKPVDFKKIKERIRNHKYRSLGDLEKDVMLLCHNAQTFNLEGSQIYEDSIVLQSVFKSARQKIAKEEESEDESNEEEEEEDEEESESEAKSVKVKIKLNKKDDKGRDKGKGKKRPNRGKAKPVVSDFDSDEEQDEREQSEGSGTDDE

[4] = molecular target: T2, von Hippel-Lindau disease tumor suppressor/SWI/SNF-related matrix-associated actin-dependent regulator of chromatin subfamily A member 2; experiment: Protac activity at VHL/SMARCA2 in human RKO cells assessed as protein degradation incubated for 18 hrs by capillary electrophoresis analysis; assay type: cell-based
Target sequence in this assay (P51531 whole entry): as the sequence (P51531 whole entry, looked up) above
Target sequence in this assay (P40337 whole entry): as the sequence (P40337 whole entry, looked up) above

[5] = test system: von Hippel-Lindau disease tumor suppressor/Leucine-rich repeat serine/threonine-protein kinase 2 (Mus musculus), Q5S006+P40338 [G2019S]; experiment: Protac activity at VHL/LRRK2 G2019S mutant in mouse MEF cells assessed as protein degradation at 33 nM after 4 hrs by Western blot analysis relative to control; assay type: cell-based
[6] = molecular target: T3, Protein cereblon/Bromodomain-containing protein 4 (Homo sapiens, UniProt O60885+Q96SW2); experiment: Protac activity at CRBN/BRD4 in HEK293 cells assessed as protein degradation by measuring maximal efficacy relative to control; assay type: cell-based
T3 sequence (Q96SW2 whole entry, looked up, other chains not shown): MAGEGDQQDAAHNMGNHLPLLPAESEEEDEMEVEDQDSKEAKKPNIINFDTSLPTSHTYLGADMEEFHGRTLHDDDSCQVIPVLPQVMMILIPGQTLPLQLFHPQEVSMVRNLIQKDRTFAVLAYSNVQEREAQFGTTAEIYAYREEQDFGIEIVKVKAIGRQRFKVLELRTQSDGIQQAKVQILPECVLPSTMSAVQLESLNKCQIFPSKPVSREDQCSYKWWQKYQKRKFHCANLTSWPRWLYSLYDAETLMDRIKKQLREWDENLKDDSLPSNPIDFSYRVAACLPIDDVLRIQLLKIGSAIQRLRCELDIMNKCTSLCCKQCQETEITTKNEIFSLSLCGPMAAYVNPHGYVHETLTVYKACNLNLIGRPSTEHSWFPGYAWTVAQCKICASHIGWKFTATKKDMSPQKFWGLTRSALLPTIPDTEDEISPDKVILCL

[7] = Oral bioavailability in mouse at 30 mg/kg; assay type: ADME, organism-based; conditions: in vivo
[8] = molecular target: E3 ubiquitin-protein ligase XIAP/Tyrosine-protein kinase BTK (Homo sapiens, UniProt P98170+Q06187); experiment: Protac activity at IAP/BTK in human THP-1 cells assessed as protein degradation; assay type: cell-based
[9] = Oral bioavailability in C57BL/6 mouse at 30 mg/kg; assay type: ADME, organism-based; conditions: in vivo
[10] = Cmax in C57BL/6 mouse at 30 mg/kg, po; assay type: ADME, organism-based; set-up: dose 30 mg/kg, route po; conditions: in vivo
[11] = Tmax in C57BL/6 mouse at 30 mg/kg, ip; assay type: ADME, organism-based; conditions: in vivo
[12] = test system: von Hippel-Lindau disease tumor suppressor/Leucine-rich repeat serine/threonine-protein kinase 2 (Mus musculus), Q5S006+P40338 [G2019S]; experiment: Protac activity at VHL/LRRK2 G2019S mutant in mouse MEF cells assessed as protein degradation at 1 uM after 4 hrs by Western blot analysis relative to control; assay type: cell-based
[13] = Tmax in C57BL/6 mouse at 30 mg/kg, po; assay type: ADME, organism-based; conditions: in vivo
[14] = molecular target: T4, von Hippel-Lindau disease tumor suppressor/Leucine-rich repeat serine/threonine-protein kinase 2 (Mus musculus) (UniProt Q5S006+P40338); experiment: Protac activity at VHL/wild type LRRK2 in mouse MEF cells assessed as protein degradation at 33 nM after 4 hrs by Western blot analysis relative to control; assay type: cell-based
[15] = test system: von Hippel-Lindau disease tumor suppressor/Leucine-rich repeat serine/threonine-protein kinase 2 (Mus musculus), Q5S006+P40338 [G2019S]; experiment: Protac activity at VHL/LRRK2 G2019S mutant in mouse MEF cells assessed as induction of protein degradation by measuring maximal efficacy after 4 hrs by Western blot analysis relative to control; assay type: cell-based
[16] = molecular target: T4, von Hippel-Lindau disease tumor suppressor/Leucine-rich repeat serine/threonine-protein kinase 2 (Mus musculus); experiment: Protac activity at VHL/wild type LRRK2 in mouse MEF cells assessed as induction of protein degradation by measuring maximal efficacy after 4 hrs by Western blot analysis relative to control; assay type: cell-based
[17] = molecular target: von Hippel-Lindau disease tumor suppressor/Leucine-rich repeat serine/threonine-protein kinase 2 (Mus musculus, UniProt Q5S006+P40338, G2019S); experiment: Protac activity at VHL/LRRK2 G2019S mutant in mouse MEF cells assessed as protein degradation after 4 hrs by Western blot analysis; assay type: cell-based
[18] = molecular target: von Hippel-Lindau disease tumor suppressor/Leucine-rich repeat serine/threonine-protein kinase 2 (Mus musculus, UniProt Q5S006+P40338); experiment: Protac activity at VHL/wild type LRRK2 in mouse MEF cells assessed as protein degradation after 4 hrs by Western blot analysis; assay type: cell-based
[19] = Cmax in C57BL/6 mouse at 30 mg/kg, ip; assay type: ADME, organism-based; set-up: dose 30 mg/kg, route ip; conditions: in vivo
[20] = molecular target: von Hippel-Lindau disease tumor suppressor/ALK tyrosine kinase receptor (Homo sapiens, UniProt Q9UM73+P40337); experiment: Protac activity at VHL/ALK in human SR cells assessed as protein degradation
[21] = molecular target: von Hippel-Lindau disease tumor suppressor/Bcl-2-like protein 1 (Homo sapiens, UniProt Q07817+P40337); experiment: Protac activity at VHL/BCL-xL in human HEK293T cells assessed as protein degradation; assay type: cell-based
[22] = molecular target: von Hippel-Lindau disease tumor suppressor/Apoptosis regulator Bcl-2 (Homo sapiens, UniProt P10415+P40337); experiment: Protac activity at VHL/BCL-2 in human HEK293T cells assessed as protein degradation; assay type: cell-based
Chain of von Hippel-Lindau disease tumor suppressor/Apoptosis regulator Bcl-2 (P10415 whole entry): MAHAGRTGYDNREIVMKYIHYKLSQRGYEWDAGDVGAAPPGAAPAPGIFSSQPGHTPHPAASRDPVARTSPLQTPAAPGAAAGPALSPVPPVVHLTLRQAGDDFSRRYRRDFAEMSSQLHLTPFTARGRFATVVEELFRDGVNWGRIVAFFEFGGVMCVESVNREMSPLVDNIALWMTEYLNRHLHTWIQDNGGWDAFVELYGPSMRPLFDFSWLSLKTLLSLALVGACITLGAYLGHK
Chain of von Hippel-Lindau disease tumor suppressor/Apoptosis regulator Bcl-2 (P40337 whole entry): as the sequence (P40337 whole entry, looked up) above

[23] = molecular target: T5, von Hippel-Lindau disease tumor suppressor/Fibroblast growth factor receptor 1 (Homo sapiens, UniProt P11362+P40337); experiment: Protac activity at VHL/FGFR1 in human CC-LP-1 cells assessed as protein degradation by measuring maximal efficacy relative to control; assay type: cell-based
[24] = molecular target: T5, von Hippel-Lindau disease tumor suppressor/Fibroblast growth factor receptor 1; experiment: Protac activity at VHL/FGFR1 in human CC-LP-1 cells assessed as protein degradation; assay type: cell-based
[25] = molecular target: BRD4/E3 ubiquitin-protein ligase Mdm2 (Homo sapiens) (UniProt Q00987+O60885); experiment: Protac activity at MDM2/BRD4 in human HCT-116 cells assessed as induction of protein degradation by measuring maximal efficacy relative to control; assay type: cell-based
[26] = molecular target: T3, Protein cereblon/Bromodomain-containing protein 4; experiment: Protac activity at CRBN/BRD4 in HEK293T cells assessed as protein degradation by immunoblot analysis; assay type: cell-based
[27] = molecular target: T6, Protein polybromo-1/von Hippel-Lindau disease tumor suppressor (Homo sapiens, UniProt Q86U86+P40337); experiment: Protac activity at VHL/PBRM1 in human NCI-H1568 cells assessed as protein degradation; assay type: cell-based
T6 sequence (Q86U86 whole entry): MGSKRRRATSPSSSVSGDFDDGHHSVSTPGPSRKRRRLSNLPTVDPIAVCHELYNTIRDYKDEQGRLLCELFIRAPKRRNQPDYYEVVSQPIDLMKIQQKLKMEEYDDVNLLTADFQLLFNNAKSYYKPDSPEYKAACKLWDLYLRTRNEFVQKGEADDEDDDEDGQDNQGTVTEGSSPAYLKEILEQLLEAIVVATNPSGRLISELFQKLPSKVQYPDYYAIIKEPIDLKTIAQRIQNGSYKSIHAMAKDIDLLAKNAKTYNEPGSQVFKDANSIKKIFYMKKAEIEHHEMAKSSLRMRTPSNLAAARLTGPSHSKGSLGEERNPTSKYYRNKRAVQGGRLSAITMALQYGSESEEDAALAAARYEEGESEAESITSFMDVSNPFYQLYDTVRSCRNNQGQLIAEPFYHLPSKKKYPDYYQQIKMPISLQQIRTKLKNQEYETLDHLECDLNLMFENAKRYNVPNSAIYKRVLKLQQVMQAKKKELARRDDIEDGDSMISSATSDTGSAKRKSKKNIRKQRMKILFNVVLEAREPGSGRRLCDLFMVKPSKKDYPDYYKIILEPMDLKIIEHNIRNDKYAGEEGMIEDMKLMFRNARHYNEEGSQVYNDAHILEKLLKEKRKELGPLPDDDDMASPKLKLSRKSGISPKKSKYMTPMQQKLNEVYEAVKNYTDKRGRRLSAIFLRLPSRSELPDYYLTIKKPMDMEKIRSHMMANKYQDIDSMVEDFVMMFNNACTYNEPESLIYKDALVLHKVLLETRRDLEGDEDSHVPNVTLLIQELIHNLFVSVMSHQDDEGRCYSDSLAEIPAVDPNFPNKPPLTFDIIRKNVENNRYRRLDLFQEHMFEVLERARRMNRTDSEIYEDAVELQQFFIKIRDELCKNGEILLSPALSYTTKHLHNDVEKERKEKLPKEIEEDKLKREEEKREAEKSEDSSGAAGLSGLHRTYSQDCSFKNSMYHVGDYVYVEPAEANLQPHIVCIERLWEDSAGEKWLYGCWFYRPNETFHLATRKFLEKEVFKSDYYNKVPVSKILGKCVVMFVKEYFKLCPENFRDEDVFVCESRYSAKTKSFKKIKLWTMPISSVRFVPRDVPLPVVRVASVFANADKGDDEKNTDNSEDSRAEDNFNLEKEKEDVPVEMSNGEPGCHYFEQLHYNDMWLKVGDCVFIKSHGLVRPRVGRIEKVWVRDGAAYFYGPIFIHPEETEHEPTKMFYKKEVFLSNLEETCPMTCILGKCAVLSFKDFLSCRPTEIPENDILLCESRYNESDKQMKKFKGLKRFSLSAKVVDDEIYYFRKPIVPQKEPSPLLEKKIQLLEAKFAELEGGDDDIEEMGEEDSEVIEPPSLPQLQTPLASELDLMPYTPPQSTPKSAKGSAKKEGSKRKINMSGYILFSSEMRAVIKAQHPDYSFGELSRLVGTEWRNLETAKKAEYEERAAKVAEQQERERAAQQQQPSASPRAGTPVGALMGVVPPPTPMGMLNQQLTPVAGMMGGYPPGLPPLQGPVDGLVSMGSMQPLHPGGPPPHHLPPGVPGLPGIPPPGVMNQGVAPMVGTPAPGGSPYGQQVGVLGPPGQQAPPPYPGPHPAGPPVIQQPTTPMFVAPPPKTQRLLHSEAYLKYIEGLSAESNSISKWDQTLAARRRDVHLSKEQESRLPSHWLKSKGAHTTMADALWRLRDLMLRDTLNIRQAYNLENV
T6 sequence (P40337 whole entry): as the sequence (P40337 whole entry, looked up) above

[28] = molecular target: T6, Protein polybromo-1/von Hippel-Lindau disease tumor suppressor; experiment: Protac activity at VHL/PBRM1 in human MV4-11 cells assessed as protein degradation; assay type: cell-based
[29] = molecular target: T2, von Hippel-Lindau disease tumor suppressor/SWI/SNF-related matrix-associated actin-dependent regulator of chromatin subfamily A member 2; experiment: Protac activity at VHL/SMARCA2 in human NCI-H1568 cells assessed as protein degradation; assay type: cell-based
Target sequence in this assay (P51531 whole entry): as the sequence (P51531 whole entry, looked up) above
Target sequence in this assay (P40337 whole entry): as the sequence (P40337 whole entry, looked up) above

[30] = molecular target: Protein cereblon/Tyrosine-protein kinase BTK (Homo sapiens) (UniProt Q06187+Q96SW2); experiment: Protac activity at CRBN/BTK in human NAMALVA cells assessed as protein degradation by measuring maximal efficacy after 24 hrs by Western blot analysis relative to control; assay type: cell-based
[31] = molecular target: T3, Protein cereblon/Bromodomain-containing protein 4; experiment: Protac activity at CRBN/BRD4 in human 22Rv1 cells assessed as degradation of BRD4; assay type: cell-based
[32] = molecular target: T7, Protein cereblon/Myc proto-oncogene protein (Homo sapiens, UniProt P01106+Q96SW2); experiment: PROTAC activity at MYC/CRBN in human HCT-116 cells assessed as degradation; assay type: cell-based
[33] = molecular target: T7, Protein cereblon/Myc proto-oncogene protein; experiment: PROTAC activity at MYC/CRBN in human PSN1 cells assessed as degradation; assay type: cell-based

T1 sequence (Q9UK73 whole entry, looked up, other chains not shown): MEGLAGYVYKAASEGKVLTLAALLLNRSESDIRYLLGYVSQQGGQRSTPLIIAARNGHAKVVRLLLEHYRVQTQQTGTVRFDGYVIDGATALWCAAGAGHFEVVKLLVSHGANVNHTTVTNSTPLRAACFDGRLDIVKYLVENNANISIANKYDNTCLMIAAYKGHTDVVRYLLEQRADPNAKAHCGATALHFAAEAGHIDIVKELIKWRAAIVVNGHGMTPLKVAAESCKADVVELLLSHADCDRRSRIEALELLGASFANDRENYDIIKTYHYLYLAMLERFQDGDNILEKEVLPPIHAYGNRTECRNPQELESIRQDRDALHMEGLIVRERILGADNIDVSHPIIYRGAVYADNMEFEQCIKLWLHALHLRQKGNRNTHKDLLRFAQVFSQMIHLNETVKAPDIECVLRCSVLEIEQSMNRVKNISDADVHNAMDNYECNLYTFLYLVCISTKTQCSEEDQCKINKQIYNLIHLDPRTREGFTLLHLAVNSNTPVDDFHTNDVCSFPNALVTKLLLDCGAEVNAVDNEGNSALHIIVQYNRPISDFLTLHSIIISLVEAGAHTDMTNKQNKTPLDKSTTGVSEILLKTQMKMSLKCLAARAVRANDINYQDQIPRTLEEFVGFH

Cc1sc2c(c1C)C(c1ccc(Cl)cc1)=N[C@@H](CC(=O)NCCCCNC(=O)CN1CCOc3cc(N(CCC#N)C(=O)CCl)ccc31)c1nnc(C)n1-2
DC50 [1]: 250 nM | Emax [2]: 94%

Cc1ncsc1-c1ccc(OCCCN2CCC(c3ccc4c(c3)n(C3CCCC3)c3nc(=O)c5c(Br)cccc5n43)CC2)c(CNC(=O)[C@@H]2C[C@@H](O)CN2C(=O)[C@@H](NC(=O)C2(F)CC2)C(C)(C)C)c1
Emax [3]: 46% | DC50 [4]: 78 nM

CNc1nc(Nc2ccc(C(=O)N3CCN(CCCOc4cc(-c5scnc5C)ccc4CNC(=O)[C@H]4C[C@@H](O)CN4C(=O)[C@@H](NC(=O)C4(F)CC4)C(C)(C)C)CC3)cc2OC)ncc1Cl
Activity [5]: 60%

Cc1sc2c(c1C)C(c1ccc(Cl)cc1)=N[C@@H](CC(=O)NCCCCNC(=O)COc1cccc3c1C(=O)N(C1CCC(=O)NC1=O)C3=O)c1nnc(C)n1-2 (some centres not stated)
Emax [6]: 93%

Cc1ncsc1-c1ccc([C@H](CCCCCN2CCC(c3ccc4c(c3)n(C3CCCC3)c3nc(=O)c5c(Br)cccc5n43)CC2)NC(=O)C2C[C@@H](O)CN2C(=O)[C@@H](NC(=O)C2(F)CC2)C(C)(C)C)cc1 (some centres not stated)
bioavailability [7]: 3% | DC50 [4]: 32 nM

CN[C@@H](C)C(=O)N[C@H](C(=O)N1CCC[C@H]1c1nc(C(=O)c2ccc(F)cc2)cs1)C1CCN(CCCC(=O)N2CCC[C@@H](n3nc(-c4ccc(Oc5ccc(F)cc5F)cc4)c(C(N)=O)c3N)C2)CC1
DC50 [8]: 4700 nM

CNc1nc(Nc2ccc(C(=O)N3CCN(C[C@H]4CC[C@H](CSC(C)(C)[C@H](NC(=O)C5(F)CC5)C(=O)N5C[C@H](O)C[C@@H]5C(=O)NCc5ccc(-c6scnc6C)cc5)CC4)CC3)cc2OC)ncc1Cl
bioavailability [9]: 15% | Cmax [10]: 3620 ng/mL | Activity [5]: 50% | Tmax [11]: 0.25 h | Activity [12]: 30% | Tmax [13]: 2 h | Activity [14]: 20% | Emax [15]: 90% | Emax [16]: 82% | DC50 [17]: 14 nM | DC50 [18]: 32 nM | Cmax [19]: 7700 ng/mL

Cc1ncsc1-c1ccc([C@H](CC[C@H](C)CCN2CCC(c3ccc4c(c3)n(C3CCCC3)c3nc(=O)c5c(Br)cccc5n43)CC2)NC(=O)C2C[C@@H](O)CN2C(=O)[C@@H](NC(=O)C2(F)CC2)C(C)(C)C)cc1 (some centres not stated)
bioavailability [7]: 22% | DC50 [4]: 1 nM

COc1cc(N2CCC(N3CCN(C(=O)CCCCCCCCC(=O)N[C@H](C(=O)N4C[C@H](O)C[C@H]4C(=O)NCc4ccc(-c5scnc5C)cc4)C(C)(C)C)CC3)CC2)ccc1Nc1ncc(Cl)c(Nc2ccccc2P(C)(C)=O)n1
DC50 [20]: 7.5 nM

Cc1ncsc1-c1ccc([C@H](C)NC(=O)[C@@H]2C[C@@H](O)CN2C(=O)[C@@H](NC(=O)CCCCCCC(=O)N2CCN(C[C@]3(C)CCC(c4ccc(Cl)cc4)=C(CN4CCN(c5ccc(C(=O)NS(=O)(=O)c6ccc(N[C@H](CCN7CCOCC7)CSc7ccccc7)c(S(=O)(=O)C(F)(F)F)c6)cc5)CC4)C3)CC2)C(C)(C)C)cc1
DC50 [21]: 6 nM | DC50 [22]: 48 nM

COc1cc(OC)c(Cl)c(NC(=O)N(C)c2cc(Nc3ccc(N4CCN(CC(=O)N[C@H](C(=O)N5C[C@H](O)C[C@H]5C(=O)N[C@@H](C)c5ccc(-c6scnc6C)cc5)C(C)(C)C)CC4)cc3)ncn2)c1Cl
Emax [23]: 85% | DC50 [24]: 4.35 nM

COc1cc(C(=O)NCCOCCOCCOCCNC(=O)C[C@@H]2N=C(c3ccc(Cl)cc3)c3c(sc(C)c3C)-n3c(C)nnc32)ccc1NC(=O)[C@@H]1N[C@@H](CC(C)(C)C)[C@](C#N)(c2ccc(Cl)cc2F)[C@H]1c1cccc(Cl)c1F
Emax [25]: 98%

COC(=O)C[C@@H]1N=C(c2ccc(Cl)cc2)c2c(sc(C(=O)NCCCCCNc3ccc4c(c3)C(=O)N(C3CCC(=O)NC3=O)C4=O)c2C)-n2c(C)nnc21 (some centres not stated)
DC50 [26]: 5 nM

Cc1ncsc1-c1ccc(CNC(=O)[C@@H]2C[C@@H](O)CN2C(=O)[C@@H](NC(=O)C2(F)CC2)C(C)(C)C)c(OCCOc2ccc(CN3CCN(c4cc(-c5ccccc5O)nnc4N)CC3)cc2)c1
DC50 [27]: 15.6 nM | DC50 [28]: 32 nM | DC50 [29]: 3.3 nM

Nc1ncnc2c1c(-c1ccc(Oc3ccccc3)cc1)nn2C1CCN(CCOCCOCC(=O)Nc2ccc3c(c2)C(=O)N(C2CCC(=O)NC2=O)C3=O)CC1 (configuration not stated)
Emax [30]: 99%

Cc1sc2c(c1C)C(c1ccc(Cl)cc1)=N[C@H](CC(=O)Nc1cccc(OCCOCCOCCNc3cccc4nnn(C5CCC(=O)NC5=O)c(=O)c34)c1)c1nnc(C)n1-2 (some centres not stated)
DC50 [31]: 0.32 nM

CC(C)c1ccc(/C=C2\SC(=O)N(CCCCCCCCNC(=O)c3ccc4c(c3)C(=O)N(C3CCC(=O)NC3=O)C4=O)C2=O)cc1 (configuration not stated)
DC50 [32]: 5000 nM | DC50 [33]: ~10000 nM
